Measurements taken from US9557321B2, “Method for screening drugs for suppressing inflammasome activity” (KYOTO UNIVERSITY, priority 2010, dated 2017).
Residues, ends and D or L forms follow the SMILES beside them. *: point of attachment. Cbz = O=C(OCc1ccccc1)*

How the values were obtained:
[1] = system: macrophage MT-1 induced from iPS cells (mutant NLRP3 gene); details: for amount of secretion of IL-1β: 100 ng/ml IL-1Ra, 12 μM Bay11-7028, 50 μM CA074Me or 10 μM Parthenolide, two hours, then drug and LPS (1 μg/ml) four hours, FIG. 5A; for amount of IL-1β secretion: each concentration of drug, cultured two hours, then drug and LPS (1 μg/ml) another four hours, FIG. 4
[2] = system: macrophage MT-1 induced from iPS cells (mutant NLRP3 gene); assay: amount of IL-8 secretion from LPS-stimulated macrophage MT-1 (Human Th1/Th2 11plex Kit); details: 100 ng/ml IL-1Ra, 12 μM Bay11-7028 or 10 μM Parthenolide; two hours, then drug and LPS (1 μg/ml) four hours; FIG. 5B
[3] = system: macrophage MT-1 induced from iPS cells (mutant NLRP3 gene); assay: amount of IL-6 secretion from LPS-stimulated macrophage MT-1 (Human Th1/Th2 11plex Kit); details: 100 ng/ml IL-1Ra, 12 μM Bay11-7028 or 10 μM Parthenolide; two hours, then drug and LPS (1 μg/ml) four hours; FIG. 5C

| Molecule | amount of secretion of IL-1β [1] | amount of secretion of IL-8 [2] | amount of secretion of IL-6 [3] | amount of IL-1β secretion [1] |
| --- | --- | --- | --- | --- |
| Cc1ccc(S(=O)(=O)/C=C/C#N)cc1 [Bay11-7028] | inhibited | inhibited | inhibited |  |
| CCCNC(=O)[C@H]1O[C@@H]1C(=O)N[C@H](C(=O)N1CCC[C@H]1C(=O)OC)[C@@H](C)CC [CA074Me] | specifically inhibited |  |  |  |
| C[C@@H]1C[C@@H]([C@H](O)CC2CC(=O)NC(=O)C2)C(=O)[C@@H](C)C1 [CHX, cycloheximide] |  |  |  | inhibited IL-1β secretion in a dose dependent manner |
| CC(C)C[C@@H](C=O)NC(=O)[C@H](CC(C)C)NC(=O)[C@H](CC(C)C)NC(=O)OCc1ccccc1 [MG132] (Cbz-Leu-Leu-Leu-aldehyde) |  |  |  | inhibited IL-1β secretion in a dose dependent manner |
| IL-1Ra: interleukin 1 receptor antagonist (R&D Systems) | did not change | did not change | did not change |  |
